Experimental data reported in patent publication US5849923A, “Heterocyclic-substituted naphthalenyl retinobenzoic acid derivatives” (Bristol-Myers Squibb Company, priority 1996, dated 1998).
Read-outs that look alike come from different tables or passages of the source.

Experiments:
rhino mouse utriculi = experiment: Rhino mouse utriculi reduction assay; format: in vivo, hairless rhino mice (hr^rh /hr^rh); conditions: once daily for 5 days; for activity in rhino mouse utriculi reduction model (in words): topical; for ED30 (concentration to reach 30% (half-maximum) utriculi reduction): topical in ethanol vehicle (50 μl), female rhino mice, 0.00033 mM to 16.5 mM
Procedure: Representatives from compounds of formula I were tested for their effect on utriculi reduction on rhino mouse and directly compared to all-trans retinoic acid.
Six to nine week old female hairless rhino mice (hr^rh /hr^rh) were produced in the Bristol-Myers Squibb colony. Test retinoids in ethanol vehicle (50 μl) were applied to the dorsal area (approximately 1.5×3 cm^2) of rhino mice once daily for 5 days (Monday to Friday). For various retinoids, a dose response was obtained with concentrations ranging from 0.00033 mM to 16.5 mM. The animals were sacrificed on the following Monday by CO2 inhalation. A 7/8" full thickness punch was taken from the central dorsal area of each animal. The epidermis of the biopsy was removed from the dermis after incubation in 0.5% acetic acid overnight at 4° C. The separated epidermis was then fixed in formalin, dehydrated with ethanol, and cleared in xylene. To determine the utriculi diameter, each epidermis sheet was placed on a glass slide in xylene. For each specimen, the diameter of 40 utricules was measured with an image analysis system (IBM PC, Image Measure program and Olympus microscope with video camera). % Utriculi reduction was calculated as [formula]
Since the maximum effect in this assay is approximately 60% utriculi reduction, the activity of various test compounds is reported as ED30 in Table 1, the concentration to reach 30% (half-maximum) utriculi reduction.

L2987 = experiment: Cytotoxicity assay (alamarBlue), lung line L2987, experiment 2; format: cell-based; conditions: Homo sapiens, read-out: IC50 values for L2987 experiment 2
Procedure: FIG. 1 is the cytotoxicity dose response curves for lung line L2987. […] Briefly, the assayed involved plating 1000 cells per well in a volume of 120 μL in a 96 well flat-bottom dish (Corning) on day -1. Twenty-four hours later the appropriate dilution of a compound of formula I was added in a volume of 30 μL complete medium (final volume 150 μL). The plates were sealed with a plate sealer (Dynatech Labs) to prevent evaporation. On day 5 the mylar film was removed and 15 μL of sterile alamarblue was added to each well and the cells were incubated 37° C. 5% CO2 for two hours. Using a Vmax plate reader the optical density for each well was determined having the […]. The 100% signal was determined for cells grown in complete medium containing only 0.5% DMSO. All wells were set-up in triplicate and the mean values were plotted in FIG. 1.

[1] = system: squamous-cell carcinoma of the head and neck; conditions: Hong, W. K. et al., N. Engl. J. Med., 1990; cited from earlier work
[2] = 120 h, L2987, experiment 2, read on day 5, alamarBlue

CC1(C)CC=C(c2ccoc2)c2cc(C(=O)Nc3ccc(C(=O)O)cc3)ccc21 [I^2 d, 4-[[[[5,6-Dihydro-5,5-dimethyl-8-(3-furyl)]-2-naphthalenyl]carbonyl]amino]benzoic acid]
activity in rhino mouse utriculi reduction model (in words) (rhino mouse utriculi): inactive

CC1(C)CC=C(c2ccsc2)c2cc(C(=O)Nc3ccc(C(=O)O)cc3)ccc21 [I^2 e, 4-[[[[5,6-Dihydro-5,5-dimethyl-8-(3-thienyl)]-2-naphthalenyl]carbonyl]amino]benzoic acid]
ED30 (concentration to reach 30% (half-maximum) utriculi reduction) (rhino mouse utriculi): 3890 µM

CC1=C(/C=C/C(C)=C/C=C/C(C)=C/C(=O)O)C(C)(C)CCC1 [All trans retinoic acid, reference compound]
IC50 (L2987; L2987, 120 h): 68 µM

CC1=C(/C=C/C(C)=C/C=C/C(C)=C\C(=O)O)C(C)(C)CCC1 [Isotretinoin]
prevention of second primary tumors (in words) [1]: useful in prevention of second primary tumors

CC1(C)CC=C(c2cccnc2)c2cc(C(=O)Nc3ccc(C(=O)O)cc3)ccc21 [I^2 f, 4-[[[[5,6-Dihydro-5,5-dimethyl-8-(3-pyridinyl)]-2-naphthalenyl]carbonyl]amino]benzoic acid]
activity in rhino mouse utriculi reduction model (in words) (rhino mouse utriculi): inactive

Cc1ccsc1C1=CCC(C)(C)c2ccc(C(=O)Nc3ccc(C(=O)O)cc3)cc21 [I^2 b]
IC50 (L2987; [2]): 50 µM

Cn1cccc1C1=CCC(C)(C)c2ccc(C(=O)Nc3ccc(C(=O)O)cc3)cc21 [I^2 g, 4-[[[[5,6-Dihydro-5,5-dimethyl-8-(2-N-methylpyrolyl)]-2-naphthalenyl]carbonyl]amino]benzoic acid]
ED30 (concentration to reach 30% (half-maximum) utriculi reduction) (rhino mouse utriculi): 2070 µM

CC1(C)CC=C(c2cccs2)c2cc(C(=O)Nc3ccc(C(=O)O)cc3)ccc21 [I^2 a, 4-[[[[5,6-Dihydro-5,5-dimethvl-8-(2-thienyl)]-2naphthalenyl]carbonyl]amino]benzoic acid]
ED30 (concentration to reach 30% (half-maximum) utriculi reduction) (rhino mouse utriculi): > 10000 µM
IC50 (L2987; [2]): 64 µM
